# Source: ChEMBL document CHEMBL1128089, “A carbene-generating biotinylated lactosylceramide analog as novel photoreactive substrate for GM3 synthase” (Bioorg Med Chem Lett, 1995)
# Where “and” joins values, the source holds several entries; their conditions need not be identical. Identical values can stand only once.
# What was measured:
# [1] = species on record: Rattus norvegicus; experiment: Evaluation of competition between CDH and compound using [3H]NANA as ligand in sialyltransferase assay at a concentration of 0.18 mM
# [2] = species on record: Rattus norvegicus; experiment: Evaluation of inhibition of CDH sialylation by the compound at a concentration of 0 mM; type: functional
# [3] = Km from Lineweaver-Burke plot; type: ADME
# [4] = species on record: Rattus norvegicus; experiment: Evaluation of competition between CDH and compound using [3H]NANA as ligand in sialyltransferase assay at a concentration of 0.90 mM
# [5] = species on record: Rattus norvegicus; experiment: Evaluation of inhibition of CDH sialylation by the compound at a concentration of 0.9 mM; type: functional
smiles,measurement,setting,value
O=C(CCCC[C@@H]1SC[C@@H]2NC(=O)N[C@@H]21)NCCCC[C@H](NC(=O)c1ccc(C2(C(F)(F)F)N=N2)cc1)C(=O)NCCO[C@@H]1O[C@@H](CO)[C@@H](O[C@@H]2O[C@@H](CO)[C@H](O)[C@H](O)[C@@H]2O)[C@H](O)[C@@H]1O,Binding,[1],3850 dpm and 9480 dpm
same,Inhibition,[2],0%
same,Km,[3],180 µM
same,Binding,[4],8610 dpm
same,Inhibition,[5],64%
